One data set relates to monkeys. To be noted: single oral dose; cited from earlier work.
In another data set the test system is humans. To be noted: dose as low as; cited from earlier work.
A further data set has as its system human subjects. To be noted: cited from earlier work.
In data set [1] the test system is rodents. To be noted: single oral dose, and above; cited from earlier work.
In a further data set the test system is dogs. To be noted: single oral dose, and above; cited from earlier work.
Data set [2] deals with rodents.

For `CCCN[C@H]1CCc2nc(N)sc2C1` [pramipexole, (6S)-4,5,6,7-tetrahydro-N6-propyl-2,6-benzothiazole-diamine], the “dose at which major excitation was displayed” value in the data set with monkeys is listed as 3.5 mg/kg. Also, the “dose shown to cause somnolence” value in the data set on humans is 1.5 mg. In the data set on human subjects, the “initial single dose not tolerated” value is listed as “greater than 0.20 mg”. In addition, the “dose at which death occurred” value with rodents [1] is 70 to 105 mg/kg. Besides, the “dose at which vomiting occurred” value in the data set with dogs is reported as at least 0.0007 mg/kg. In the data set with rodents [2] (human equivalent), the “equivalent human dose of the rodent lethal dose” value lay within 7 to 12 mg/kg. Moreover, the “equivalent human dose of the rodent lethal dose for a 70 kg individual” value in the data set on rodents [2] (rodents, in vivo) was in the range of 500 to 850 mg.

Values taken from US20130079526A1, “Synthesis of Chirally Purified Substituted Benzothiazole Diamines” (priority 2010, published 2013).
